Tests used:
[1] = test system: P-selectin; assay: P-selectin-mediated HL-60 cell binding to immobilized P-selectin/Fc chimera; assay type: cell-based; details: HL-60 cells, best-fit values
Experimental: 96 well plates were coated with 10 μg/mL Protein A overnight, then blocked with 2% FBS for 1 hour. 2 μg/mL P-selectin/Fc chimera was bound to the Protein A for 3 hours at 4° C. HL-60 cells (2e5 cells/well, CMFDA labeled) were then layered onto the P-selectin and allowed to bind for 1 hour at room temperature. Wells were treated concurrently with test samples to determine inhibitory binding activity. After 1 hour, unbound cells were washed and bound cells lysed in a 1% Triton-X solution and read on a Fluorimeter at 480/520 nm.

[2] = test system: BxPC3-luc, clone 1F11 cells; assay: Gemcitabine sparing pancreatic cancer model, subcutaneous BxPC3-luc tumors; assay type: in vivo, female NSG mice; details: Compound C 10 mg/kg BID s.c., gemcitabine 25 mg/kg QW i.p., day 7 through day 70; FIG. 4
Experimental: Methods: Pancreatic cancer tumors were generated by subcutaneous injection of 100 μL of BxPC3-luc, clone 1F11 cells (1×10^6) in matrigel into the right flank of female NSG mice. Tumors were allowed to grow for 7 days prior to initiating treatment. At day 7 post-implant, mice were randomized into treatment groups (n=5/group) and treatment was initiated per dose route and regimen as described below:
Gemcitabine (Gem) at a low sensitizing dose was administered 25 mg/kg QW by intraperitoneal route. Compound C was administered 10 mg/kg BID by subcutaneous route. Treatments were administered from day 7 through day 70.
Body weight and tumor volume by caliper was measured weekly. At day 70 imaging was performed by administering 150 mg/kg luciferin and measuring whole body […] by IVIS imaging system. Tumors and organs were then harvested and imaged ex vivo.

P-sel IC50 [1] [µg/mL] | Compound | tumor growth inhibition (tumor volume by caliper) [2]
64.72 | enoxaparin | –
– | Nc1ccn([C@@H]2O[C@H](CO)[C@@H](O)C2(F)F)c(=O)n1 [Gemcitabine] | no effect on tumor growth

Source: patent US20250353936A1, “CHEMICALLY MODIFIED HEPARIN” (IHP Therapeutics Inc., priority 2022, published 2025)
